In ChEMBL document CHEMBL1909046, “DrugMatrix in vitro pharmacology data”:

Assays:
[1] = DRUGMATRIX: Atrial Natriuretic Factor (ANF) radioligand binding (ligand: [125I] ANF (rat)); format: cell membranes, Cavia porcellus, Dunkin-Hartley, Adrenal gland, Membrane; details: Not Active = under 50% inhibition at 10 µM
B2 bradykinin receptor = biological target: T1, B2 bradykinin receptor (Homo sapiens, UniProt P30411); format: cell membranes, Membrane; details: chem-1; also: in other assays of this panel Not Active means under 50% inhibition at 10 µM
T1 sequence (P30411 whole entry): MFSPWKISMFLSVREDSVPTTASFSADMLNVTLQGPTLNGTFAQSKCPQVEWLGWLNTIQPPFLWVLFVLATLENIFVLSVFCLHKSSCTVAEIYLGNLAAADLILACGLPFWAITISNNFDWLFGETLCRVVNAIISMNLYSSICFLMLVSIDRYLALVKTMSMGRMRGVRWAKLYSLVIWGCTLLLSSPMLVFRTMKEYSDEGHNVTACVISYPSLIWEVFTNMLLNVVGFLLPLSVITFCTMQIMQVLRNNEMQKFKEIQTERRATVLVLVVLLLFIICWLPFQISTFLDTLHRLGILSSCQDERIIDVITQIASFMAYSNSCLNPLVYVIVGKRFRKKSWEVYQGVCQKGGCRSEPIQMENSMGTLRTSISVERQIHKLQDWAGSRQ

Calcitonin receptor = biological target: T2, Calcitonin receptor (Homo sapiens, UniProt P30988); format: cell membranes, Membrane; details: t47d; also: in other assays of this panel Not Active means under 50% inhibition at 10 µM
T2 sequence (P30988 whole entry): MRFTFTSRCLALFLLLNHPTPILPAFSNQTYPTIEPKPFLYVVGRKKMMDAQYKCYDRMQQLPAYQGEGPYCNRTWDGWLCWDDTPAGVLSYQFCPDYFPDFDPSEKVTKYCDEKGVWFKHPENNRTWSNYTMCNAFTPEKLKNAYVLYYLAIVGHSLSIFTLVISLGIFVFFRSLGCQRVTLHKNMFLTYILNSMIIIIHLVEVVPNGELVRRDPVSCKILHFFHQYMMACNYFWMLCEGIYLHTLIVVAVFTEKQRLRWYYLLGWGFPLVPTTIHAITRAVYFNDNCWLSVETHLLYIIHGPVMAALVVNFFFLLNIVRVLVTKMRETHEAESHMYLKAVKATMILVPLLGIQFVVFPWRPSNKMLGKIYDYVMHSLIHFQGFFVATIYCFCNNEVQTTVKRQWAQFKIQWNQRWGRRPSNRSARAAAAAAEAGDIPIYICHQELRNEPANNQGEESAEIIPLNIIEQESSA

[2] = DRUGMATRIX: Tumor Necrosis Factor (TNF), Non-Selective radioligand binding (ligand: [125I] TNF-alpha); format: cell membranes, Membrane; details: u-937; Not Active = under 50% inhibition at 10 µM
[3] = biological target: Kappa-type opioid receptor (Homo sapiens, UniProt P41145); assay: DRUGMATRIX: Opiate kappa (OP2, KOP) radioligand binding (ligand: [3H] Diprenorphine); format: cell membranes, HEK293, Membrane; details: hek293; Not Active = under 50% inhibition at 10 µM
Chain of Kappa-type opioid receptor (P41145 whole entry): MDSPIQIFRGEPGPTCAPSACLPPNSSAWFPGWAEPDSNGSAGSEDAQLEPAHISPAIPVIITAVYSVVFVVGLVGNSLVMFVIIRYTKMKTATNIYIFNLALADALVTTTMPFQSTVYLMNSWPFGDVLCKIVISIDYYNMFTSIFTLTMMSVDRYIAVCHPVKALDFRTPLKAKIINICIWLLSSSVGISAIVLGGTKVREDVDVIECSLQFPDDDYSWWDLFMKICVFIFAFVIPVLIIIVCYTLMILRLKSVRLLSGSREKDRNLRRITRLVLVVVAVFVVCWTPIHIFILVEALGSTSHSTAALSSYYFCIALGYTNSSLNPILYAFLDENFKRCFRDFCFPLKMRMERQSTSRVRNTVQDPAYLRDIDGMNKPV

Cathepsin G = biological target: T3, Cathepsin G (Homo sapiens, UniProt P08311); format: tissue-based; details: neutrophil;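 also: inhibition of Cathepsin G enzyme activity, tested on an AMC-conjugated peptide substrate; in other assays of this panel Not Active means under 50% inhibition at 10 µM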
T3 sequence (P08311 whole entry): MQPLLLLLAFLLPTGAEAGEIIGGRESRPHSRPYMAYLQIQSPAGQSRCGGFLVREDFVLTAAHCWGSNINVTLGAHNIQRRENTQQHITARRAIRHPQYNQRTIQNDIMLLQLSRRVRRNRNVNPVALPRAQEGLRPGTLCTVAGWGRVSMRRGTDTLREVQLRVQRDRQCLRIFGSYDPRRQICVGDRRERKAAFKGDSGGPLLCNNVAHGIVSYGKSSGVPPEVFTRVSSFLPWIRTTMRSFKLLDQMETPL

[4] = biological target: T4, Receptor-type tyrosine-protein phosphatase C (Homo sapiens, UniProt P08575); design: species or system Escherichia coli;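 also: inhibition of CD45 enzyme activity measured using DiFMUP as substrate; in other assays of this panel Not Active means under 50% inhibition at 10 µM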
T4 sequence (P08575 whole entry): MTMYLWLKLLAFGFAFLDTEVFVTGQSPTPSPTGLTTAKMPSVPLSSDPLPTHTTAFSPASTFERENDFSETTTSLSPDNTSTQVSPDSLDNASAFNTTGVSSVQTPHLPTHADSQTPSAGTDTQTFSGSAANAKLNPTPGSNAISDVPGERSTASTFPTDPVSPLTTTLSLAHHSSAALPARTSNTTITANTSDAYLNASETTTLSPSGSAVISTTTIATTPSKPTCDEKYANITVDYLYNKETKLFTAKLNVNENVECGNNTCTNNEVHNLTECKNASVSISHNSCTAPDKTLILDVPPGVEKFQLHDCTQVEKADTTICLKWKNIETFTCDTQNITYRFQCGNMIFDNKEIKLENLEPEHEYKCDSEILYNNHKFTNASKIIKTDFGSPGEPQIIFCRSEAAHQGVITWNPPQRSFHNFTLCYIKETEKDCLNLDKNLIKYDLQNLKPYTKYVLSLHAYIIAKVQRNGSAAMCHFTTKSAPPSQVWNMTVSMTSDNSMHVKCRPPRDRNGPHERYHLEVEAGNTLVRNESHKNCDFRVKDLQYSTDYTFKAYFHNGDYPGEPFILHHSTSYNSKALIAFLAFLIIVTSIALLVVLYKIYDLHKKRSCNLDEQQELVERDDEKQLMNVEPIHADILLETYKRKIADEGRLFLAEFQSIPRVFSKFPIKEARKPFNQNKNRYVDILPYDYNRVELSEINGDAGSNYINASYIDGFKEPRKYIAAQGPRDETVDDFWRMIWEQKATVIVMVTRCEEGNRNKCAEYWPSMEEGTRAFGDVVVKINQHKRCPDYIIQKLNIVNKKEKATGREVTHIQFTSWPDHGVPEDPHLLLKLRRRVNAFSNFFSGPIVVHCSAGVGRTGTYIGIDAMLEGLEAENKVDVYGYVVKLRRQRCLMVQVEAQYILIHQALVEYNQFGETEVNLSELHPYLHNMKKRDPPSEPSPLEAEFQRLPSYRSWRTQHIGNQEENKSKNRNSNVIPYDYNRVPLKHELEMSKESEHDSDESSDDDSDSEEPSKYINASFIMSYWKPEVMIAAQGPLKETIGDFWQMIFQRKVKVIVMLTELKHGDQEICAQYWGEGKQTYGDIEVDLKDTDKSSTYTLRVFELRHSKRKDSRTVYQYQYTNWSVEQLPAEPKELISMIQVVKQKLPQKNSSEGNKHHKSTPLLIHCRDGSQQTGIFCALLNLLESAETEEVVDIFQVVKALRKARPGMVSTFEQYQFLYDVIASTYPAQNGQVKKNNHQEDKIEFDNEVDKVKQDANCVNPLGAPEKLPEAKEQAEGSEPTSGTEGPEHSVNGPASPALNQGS

CS(=O)(=O)Nc1ccc([N+](=O)[O-])cc1Oc1ccccc1 [NIMESULIDE]
Not Active: IC50 [1] | Ki [1] | IC50 (B2 bradykinin receptor) | IC50 (Calcitonin receptor) | IC50 [2] | Ki [2] | IC50 [3] | IC50 (Cathepsin G) | IC50 [4]

O=C(O)c1cc(-c2ccc(F)cc2F)ccc1O [DIFLUNISAL]
Not Active: IC50 [1] | Ki [1] | IC50 (B2 bradykinin receptor) | IC50 (Calcitonin receptor) | IC50 [2] | Ki [2] | IC50 [3] | IC50 (Cathepsin G) | IC50 [4]

CN1CCN(C(c2ccccc2)c2ccccc2)CC1 [CYCLIZINE]
Not Active: IC50 [1] | Ki [1] | IC50 (B2 bradykinin receptor) | IC50 (Calcitonin receptor) | IC50 [2] | Ki [2] | IC50 [3] | IC50 (Cathepsin G) | IC50 [4]

CC(C)(C)NCC(O)COc1cccc2c1CC(O)C(O)C2 (stereo not drawn) [NADOLOL]
Not Active: IC50 [1] | Ki [1] | IC50 (B2 bradykinin receptor) | IC50 (Calcitonin receptor) | IC50 [2] | Ki [2] | IC50 [3] | IC50 (Cathepsin G) | IC50 [4]

CCCNC(=O)NS(=O)(=O)c1ccc(Cl)cc1 [CHLORPROPAMIDE]
Not Active: IC50 [1] | Ki [1] | IC50 (B2 bradykinin receptor) | IC50 (Calcitonin receptor) | IC50 [2] | Ki [2] | IC50 [3] | IC50 (Cathepsin G) | IC50 [4]

CO/N=C(\C(=O)N[C@@H]1C(=O)N2C(C(=O)O)=C(COC(C)=O)CS[C@H]12)c1csc(N)n1 [CEFOTAXIME]
Not Active: IC50 [1] | Ki [1] | IC50 (B2 bradykinin receptor) | IC50 (Calcitonin receptor) | IC50 [2] | Ki [2] | IC50 [3] | IC50 (Cathepsin G) | IC50 [4]

Nc1cc(-c2ccncc2)c[nH]c1=O [INAMRINONE]
Not Active: IC50 [1] | Ki [1] | IC50 (B2 bradykinin receptor) | IC50 (Calcitonin receptor) | IC50 [2] | Ki [2] | IC50 [3] | IC50 (Cathepsin G) | IC50 [4]
